pIC50: −log10 of the molar value.
Assays:
Human PDE7B (hPDE7B) = biological target: T1, Human PDE7B (hPDE7B) (Homo sapiens, UniProt Q9NP56); experiment: Measurement of PDE7 inhibitory activity (Experimental Example 1; residual cAMP, LANCE Ultra cAMP TR-FRET); format: biochemical; conditions: for pIC50: cAMP 3 nmol/L, room temperature 60 minutes; for inhibition at 1 µM: compound at 1 μmol/L
T1 construct: made in house; host or cells: COS-7 cells
Procedure: Human PDE7B (hPDE7B) was isolated from COS-7 cells transfected with plasmids encoding hPDE7B according to the method described in a reference, Biochemical and Biophysical Research Communication, 271, p. 575-583 (2000). The resulting enzyme solution was used in the PDE assay.
(§1) PDE7 inhibitory assay was carried out by reacting the mixture of a compound, hPDE7B, and cAMP, and measuring the residual cAMP by a detection method using LANCE (registered trademark) Ultra cAMP Detection Kit (ParkinElmer). The compound was dissolved in DMSO, and diluted so that the concentration would become 50 times of the final concentration. The hPDE7B and cAMP were diluted with an assay buffer (50 mmol/L Tris-HCl, 1 mmol/L MgCl2, 0.1% BSA, 0.5 mmol/L DTT, pH7.5) so that the hPDE7B would have an appropriate enzyme activity and the concentration of cAMP would become 6 nmol/L. To a 96 well plate were added the compound (2 μL) (DMSO final concentration: 2%), hPDE7B (48 μL), and cAMP (50 μL) (concentration at the reaction: 3 nmol/L), and the resulting mixture was reacted at room temperature for 60 minutes. The reaction solution (20 μL) was subjected to a TR-FRET method according to the protocol specified by the kit to measure the concentration of the residual cAMP. In the assay, to a tracer solution specified by the kit was added 0.5 mmol/L of 3-isobutyl-1-methylxanthine (IBMX, nonselective PDE inhibitor) in order to stop the PDE enzyme reaction after the completion of reaction until the measurement.
The reaction without a compound was defined as “0% inhibition”, the reaction without hPDE7B was defined as “100% inhibition”, and the inhibition rate of the compound was calculated by the following equation.
Inhibition rate of compound (%)={(Residual cAMP concentration at the addition of compound−Residual cAMP concentration in 0% inhibition)/(Residual cAMP concentration in 100% inhibition−Residual cAMP concentration in 0% inhibition)}×100

hPDE8B = biological target: T2, hPDE8B (Homo sapiens, UniProt O95263); experiment: PDE8 inhibition assay (IC50), Experimental Example 3; format: biochemical
T2 construct: purchased SB Drug Discovery
Procedure: as §1
The prediction of PDE7 selectivity was evaluated by comparing each IC50 value of a compound against PDE4, 8, and 10 with the IC50 value of said compound against PDE7B.
hPDE4D, hPDE8B, and hPDE10A were prepared by the same method as [Method for preparing samples 2].
PDE4, 8, and 10 inhibitory assays were carried out by the same method as [Assay procedure 1].
The reaction without a compound wad defined as “0% inhibition”, the reaction without each PDE was defined as “100% inhibition”, and the calculation of IC50 value was carried out by the same method as <Method for data calculation 1>.

T1 sequence (Q9NP56 whole entry): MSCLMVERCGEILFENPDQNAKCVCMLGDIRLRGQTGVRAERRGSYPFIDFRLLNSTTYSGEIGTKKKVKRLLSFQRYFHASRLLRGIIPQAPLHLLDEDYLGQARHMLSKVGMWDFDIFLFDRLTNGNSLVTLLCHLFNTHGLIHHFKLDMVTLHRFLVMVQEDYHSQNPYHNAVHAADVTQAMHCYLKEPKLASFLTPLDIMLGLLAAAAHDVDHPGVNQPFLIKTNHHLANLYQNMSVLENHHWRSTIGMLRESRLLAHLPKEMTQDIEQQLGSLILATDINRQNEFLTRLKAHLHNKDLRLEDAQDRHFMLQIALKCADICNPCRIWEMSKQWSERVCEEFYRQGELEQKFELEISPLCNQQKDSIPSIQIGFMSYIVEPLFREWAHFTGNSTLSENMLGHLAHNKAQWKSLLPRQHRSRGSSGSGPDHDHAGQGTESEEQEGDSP
T2 sequence (O95263 whole entry): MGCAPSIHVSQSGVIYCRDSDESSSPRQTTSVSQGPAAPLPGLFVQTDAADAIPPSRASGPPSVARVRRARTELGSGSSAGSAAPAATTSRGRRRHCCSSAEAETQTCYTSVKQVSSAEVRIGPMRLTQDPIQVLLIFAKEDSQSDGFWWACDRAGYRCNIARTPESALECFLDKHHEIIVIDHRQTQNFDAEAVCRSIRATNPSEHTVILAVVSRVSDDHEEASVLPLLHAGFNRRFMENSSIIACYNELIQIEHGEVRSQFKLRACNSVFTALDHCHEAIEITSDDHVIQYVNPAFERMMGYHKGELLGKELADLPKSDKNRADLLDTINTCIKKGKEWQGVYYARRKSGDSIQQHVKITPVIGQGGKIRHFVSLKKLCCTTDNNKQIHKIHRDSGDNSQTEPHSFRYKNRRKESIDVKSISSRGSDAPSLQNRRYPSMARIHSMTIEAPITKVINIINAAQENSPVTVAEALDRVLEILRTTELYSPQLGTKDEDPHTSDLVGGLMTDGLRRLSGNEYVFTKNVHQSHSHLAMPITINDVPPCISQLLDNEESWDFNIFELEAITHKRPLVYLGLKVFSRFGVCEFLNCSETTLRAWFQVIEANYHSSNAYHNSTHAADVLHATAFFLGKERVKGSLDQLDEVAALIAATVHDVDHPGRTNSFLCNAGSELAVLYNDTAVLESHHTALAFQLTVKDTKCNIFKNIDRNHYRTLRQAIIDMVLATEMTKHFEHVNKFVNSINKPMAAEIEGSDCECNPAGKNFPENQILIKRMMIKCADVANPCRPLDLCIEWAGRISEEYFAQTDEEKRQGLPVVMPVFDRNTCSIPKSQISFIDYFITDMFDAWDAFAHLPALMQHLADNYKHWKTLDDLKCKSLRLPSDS

Row | SMILES | pIC50 (Human PDE7B (hPDE7B)) | also measured
1 | CC1(n2nnc3c(N)ncnc32)CCCCC1 [Example 7] | 6.25 | inhibition at 10 µM (hPDE8B; at 10 μmol/L, read-out: inhibition rate (%) at prescribed concentration, PDE8): 50%
2 | CC(C)(C)OC(=O)N1CCC[C@H](n2nnc3c(N)ncnc32)C1 [Example 13, Tert-butyl (3S)-3-(7-amino-3H-[1,2,3]triazolo[4,5-d]pyrimidin-3-yl)piperidine-1-carboxylate] | 6.80 | pIC50 (hPDE8B; hPDE8B, read-out: PDE inhibition assay IC50, PDE8): 6.66
3 | CC1CCC(C)N(c2nnc3c(N)ncc(C#N)n23)C1 (racemic) [Example 60, 8-amino-3-(2,5-dimethylpiperidin-1-yl) [1,2,4]triazolo[4,3-a]pyrazine-5-carbonitrile] | > 8.00 | 
4 | CC1CC(c2nnc3c(N)nccn23)CC(F)(F)C1 (centres unmarked) [Example 154] | 6.96 | 
5 | Nc1nccn2c(C3CCCc4ccccc43)nnc12 (racemic) [Example 17, 3-(1,2,3,4-tetrahydronaphthalen-1-yl)-[1,2,4]triazolo[4,3-a]pyrazin-8-amine] | 6.49 | 
6 | Nc1nccn2c(N3C[C@H]4C[C@H]4C3)nnc12 [Example 31] | 6.32 | 
7 | COC(=O)N1CCCCC1c1nnc2c(N)nccn12 (racemic) [Example 251, methyl 2-(8-amino-[1,2,4]triazolo[4,3-a]pyrazin-3-yl)-piperidine-1-carboxylate] | 6.21 | 
8 | Nc1nccn2c(N3CCCCCCC3)nnc12 [Example 30] | 6.41 | 
9 | CC1CCN(c2nnc3c(N)nccn23)CC1C (single isomer, unassigned) [Example 228, 3-(3,4-dimethylpiperidin-1-yl) [1,2,4]triazolo[4,3-a]pyrazin-8-amine] | 6.27 | 
10 | CC1(C)CCCC(c2nnc3c(N)nccn23)C1 (single isomer, unassigned) [Example 206, 3-(3,3-dimethylcyclohexyl) [1,2,4]triazolo[4,3-a]pyrazin-8-amine] | < 6.00 | inhibition at 1 µM (Human PDE7B (hPDE7B)): 44%
11 | CC1CCC(C)(C)CN1c1nnc2c(N)nccn12 (single isomer, unassigned) [Example 237, 3-(2,5,5-trimethylpiperidin-1-yl) [1,2,4]triazolo[4,3-a]pyrazin-8-amine] | 8.55 | 
12 | CC1CCN(c2nnc3c(N)nccn23)CC1C (mixture of isomers) [Example 55, 3-(3,4-dimethylpiperidin-1-yl) [1,2,4]triazolo[4,3-a]pyrazin-8-amine] | 7.52 | 
13 | CC1CC(c2nnc3c(N)nccn23)CC(F)(F)C1 (single isomer, unassigned) [Example 217, 3-(trans-3,3-difluoro-5-methylcyclohexyl[1,2,4]triazolo[4,3-a]pyrazin-8-amine] | 7.00 | 
14 | Nc1nccn2c(C3CCc4ccccc4C3)nnc12 (racemic) [Example 77, 3-(1,2,3,4-tetrahydronaphthalen-2-yl)-[1,2,4]triazolo[4,3-a]pyrazin-8-amine] | 6.51 | 
15 | Nc1nccn2c(C3CCC3)nnc12 [Example 18] | 6.34 | 
16 | CC1CCCCC1c1nnc2c(N)ncnn12 (single isomer, unassigned) [Example 239, 3-(cis-2-methylcyclohexyl) [1,2,4]triazolo[3,4-f][1,2,4]triazin-8-amine] | 6.96 | 
17 | CC1(C)CCCCN1c1nnc2c(N)nccn12 [Example 36, 3-(2,2-dimethylpiperidin-1-yl)-[1,2,4]triazolo[4,3-a]pyrazin-8-amine] | 6.42 | 
18 | C=C(C)[C@H]1CC[C@H](C)C(n2nnc3c(N)ncnc32)C1 (stereo in doubt) [Example 107, 3-[(1R,2S,5S)-2-methyl-5-(prop-1-en-2-yl)cyclohexyl]-3H-[1,2,3]triazolo[4,5-d]pyrimidin-7-amine] | < 6.00 | inhibition at 1 µM (Human PDE7B (hPDE7B)): 35%
19 | C[C@H]1CCCCN1c1nnc2c(N)nccn12 [Example 21, 3-(2-methylpiperidin-1-yl) [1,2,4]triazolo[4,3-a]pyrazin-8-amine] | 7.05 | 
20 | Nc1ncnn2c(C3CCCC(C(F)(F)F)C3)nnc12 (single isomer, unassigned) [Example 74, 3-[cis-3-(trifluoromethyl)cyclohexyl][1,2,4]triazolo[3,4-f][1,2,4]triazin-8-amine] | > 8.00 | 
21 | CCC1CCCCN1c1nnc2c(N)nccn12 (single isomer, unassigned) [Example 223, 3-(2-ethylpiperidin-1-yl) [1,2,4]triazolo[4,3-a]pyrazin-8-amine] | 6.72 | 
22 | Nc1ncnc2c1nnn2C1CCCC(CO)C1 (centres unmarked) [Example 124] | 6.59 | 
23 | Nc1ncnc2c1nnn2C1CCCC(C(F)(F)F)C1 (single isomer, unassigned) [Example 203, 3-[cis-3-(trifluoromethyl)cyclohexyl]-3H-[1,2,3]triazolo[4,5-d]pyrimidin-7-amine] | < 6.00 | inhibition at 1 µM (Human PDE7B (hPDE7B)): 27%
24 | CC1(C)CCN(c2nnc3c(N)nccn23)CC1 [Example 51] | 6.96 | 

Row | SMILES | pIC50 (Human PDE7B (hPDE7B)) | also measured
25 | CC1CCCCC1n1nnc2c(N)ncnc21 (racemic) [Example 95, 3-(cis-2-methylcyclohexyl)-3H-[1,2,3]triazolo[4,5-d]pyrimidin-7-amine] | 7.40 | 
26 | Nc1nccn2c(C3CCCC(C(F)(F)F)C3)nnc12 (centres unmarked) [Example 147] | 6.15 | 
27 | Nc1ncnc2c1nnn2C12CC3CC(CC(C3)C1)C2 [Example 10] | 7.00 | 
28 | Nc1nccn2c(C3CCC4CC4C3)nnc12 (single isomer, unassigned) [Example 220, 3-(bicyclo[4.1.0]hept-3-yl) [1,2,4]triazolo[4,3-a]pyrazin-8-amine] | 6.96 | 
29 | CC1CCCC(n2nnc3c(N)ncnc32)C1 (racemic) [Example 98, 3-(cis-3-methylcyclohexyl)-3H-[1,2,3]triazolo[4,5-d]pyrimidin-7-amine] | 7.10 | 
30 | C[C@]1(O)CC[C@@H](n2nnc3c(N)ncnc32)CC1 [Example 9] | 6.05 | 
31 | C=C1CC(c2nnc3c(N)nccn23)C1 [Example 19, 3-(3-methylenecyclobutyl)-[1,2,4]triazolo[4,3-a]pyrazin-8-amine] | 6.62 | 
32 | CC1CCC(F)(F)CC1c1nnc2c(N)nccn12 (racemic) [Example 152, 3-(cis-5,5-difluoro-2-methylcyclohexyl) [1,2,4]triazolo[4,3-a]pyrazin-8-amine] | > 8.00 | 
33 | Nc1ncnc2c1nnn2C1CCCCC1C(F)(F)F (racemic) [Example 96] | 6.02 | 
34 | CC1(C)CCCN(c2nnc3c(N)ncc(-c4ccccc4)n23)C1 [Example 81] | 6.80 | 
35 | Nc1nccn2c([C@@H]3CCCC(F)(F)C3)nnc12 [Example 213, 3-(3,3-difluorocyclohexyl) [1,2,4]triazolo[4,3-a]pyrazin-8-amine] | 6.48 | 
36 | CC1CCCC(n2nnc3c(N)ncnc32)C1 (single isomer, unassigned) [Example 197, 3-(cis-3-methylcyclohexyl)-3H-[1,2,3]triazolo[4,5-d]pyrimidin-7-amine] | 6.47 | 
37 | Nc1ncnc2c1nnn2C1CCCC(C(F)F)C1 (single isomer, unassigned) [Example 201] | < 6.00 | inhibition at 1 µM (Human PDE7B (hPDE7B)): 20%
38 | CCC1CCCC(n2nnc3c(N)ncnc32)C1 (centres unmarked) [Example 117] | 7.10 | 
39 | Cc1cnc(C2CCCC(n3nnc4c(N)ncnc43)C2)s1 (centres unmarked) [Example 127] | 6.14 | 
40 | Nc1ncnc2c1nnn2[C@H]1CCCOC1 [Example 91] | 6.44 | 
41 | Nc1nccn2c(N3CCCC(F)C3)nnc12 (centres unmarked) [Example 27] | 6.49 | 
42 | CC1CCCC(c2nnc3c(N)ncnn23)C1 (single isomer, unassigned) [Example 241, 3-(cis-3-methylcyclohexyl) [1,2,4]triazolo[3,4-f][1,2,4]triazin-8-amine] | 6.64 | 
43 | Nc1ncnc2c1nnn2[C@H]1CCC[C@@H](C(F)(F)F)C1 (racemic) [Example 87, 3-[cis-3-(trifluoromethyl)cyclohexyl]-3H-[1,2,3]triazolo[4,5-d]pyrimidin-7-amine] | 7.52 | 
44 | Nc1nccn2c(C3CCCC(C(F)(F)F)C3)nnc12 (racemic) [Example 146, 3-[cis-3-(trifluoromethyl)cyclohexyl][1,2,4]triazolo[4,3-a]pyrazin-8-amine] | 7.40 | 
45 | CC(C)C1CCCCN1c1nnc2c(N)nccn12 (centres unmarked) [Example 37] | 6.31 | 
46 | COC1CCCC(n2nnc3c(N)ncnc32)C1 (centres unmarked) [Example 121] | 6.06 | 
47 | COC1CCCC(n2nnc3c(N)ncnc32)C1 (centres unmarked) [Example 123] | 6.38 | 
